One assay concerns intracellular cAMP. Briefly: Intracellular cAMP in osteoblastic cell lines. The class given is cell-based, rat. How it is done:
(§1) Cell Cultures—RP-1 periosteal cells are spontaneously immortalized from primary cultures of periosteal cells from tibae of 4-week old Sprague-Dawley rats and are cultured in DMEM (BRL, Gaithersburg, Md.) with 10% fetal bovine serum (JRP Biosciences, Lenexa, KS). […] RCT-1 and RCT-3 are clonal cell lines immortalized by SV40 large T antigen from cells released from fetal rat calvair by a cmbination collagenase/hyaluronidase digestion. RCT-1 cells, derived from cells released during the first 10 minutes of digestion (fraction I), are cultured in RPMI 1640 medium (BRL) with 10% fetal bovine serum and 0.4 mg/ml G418 (BRL). These cells differentiate and express osteoblastic features upon retinoic acid treatment. RCT-3 cells, immortalized from osteoblast-enriched fraction m cells, are cultured in F-12 medium (BRL) with 5% Fetal bovine serum and 0.4 mg/ml G418. TRAB-11 cells are also immortalized by SV40 large T antigen from adult rat tibia and are cultured in RPMI 1640 medium with 10% FBS and 0.4 mg/ml G418. ROS 17/12.8 rat osteosarcoma cells are cultured in F-12 containing 5% PBS. Osteoblast-enriched (fraction III) primary fetal rat calvaria cells are obtained by collagenase/hyaluronidase digestion of calvariae of 19 day-old rat fetuses. See Rodan et al., Growth stimulation of rat calvaria osteoblastic cells by acidic FGF, Endocrinology, 121, 1919-1923 (1987), which is incorporated by reference herein in its entirety. Cells are released during 30-50 minutes digestion (fraction III) and are cultured in F-12 medium containing 5% FBS. P815 (mouse mastocytoma) cells, cultured in Eagles MEM with 10% FBS, and NRK (normal rat kidney fibroblasts) cells, cultured in DMEM with 10% […], are used as positive and negative controls for the expression of EP4, respectively. See Abramovitz et al., Human prostanoid receptors: cloning and characterization. In: Samulesson B. et al. ed) Advances in prostaglandin, Thrombosznes and leukotriene research, vol. […]

Assay [1] deals with EP4 mRNA. Briefly: EP4 mRNA levels in bone derived cell lines (Northern blot). The class given is cell-based, rat. How it is done: as §1
Assay [2] concerns EP2 mRNA. Briefly: EP2 mRNA in RP-1 periosteal cells (Northern blot). The note with it: RP-1 cells. The class given is cell-based, rat. How it is done: Cell Cultures—RP-1 periosteal cells are spontaneously immortalized from primary cultures of periosteal cells from tibae of 4-week old Sprague-Dawley rats and are cultured in DMEM (BRL, Gaithersburg, Md.) with 10% fetal bovine serum (JRP Biosciences, Lenexa, KS). […] RCT-1 and RCT-3 are clonal cell lines immortalized by SV40 large T antigen from cells released from fetal rat calvair by a cmbination collagenase/hyaluronidase digestion. RCT-1 cells, derived from cells released during the first 10 minutes of digestion (fraction I), are cultured in RPMI 1640 medium (BRL) with 10% fetal bovine serum and 0.4 mg/ml G418 (BRL). These cells differentiate and express osteoblastic features upon retinoic acid treatment. RCT-3 cells, immortalized from osteoblast-enriched fraction m cells, are cultured in F-12 medium (BRL) with 5% Fetal bovine serum and 0.4 mg/ml G418. TRAB-11 cells are also immortalized by SV40 large T antigen from adult rat tibia and are cultured in RPMI 1640 medium with 10% FBS and 0.4 mg/ml G418. ROS 17/12.8 rat osteosarcoma cells are cultured in F-12 containing 5% PBS. Osteoblast-enriched (fraction III) primary fetal rat calvaria cells are obtained by collagenase/hyaluronidase digestion of calvariae of 19 day-old rat fetuses. […]

In assay [3] the test system is EP4 mRNA. Put plainly: EP4 mRNA levels in vivo in bone tissue (Northern blot). On the set-up: species or system rat. The note with it: tibial diaphysis, five-week-old male rats, 3-6 mg/Kg. The source says: Animal Procedures—For mRNA localization experiments, 5-week old Sprague-Dawley rats (Charles River) are euthanized by CO2, their tibiae and calvariae are excised, cleaned of soft tissues and frozen immediately in liquid nitrogen. […] Animals are euthanized at several time points post-injection and their tibiae and calvariae, as well as samples from lung and kidney tissues are frozen in liquid nitrogen.
Northern Blot Analysis—Total RNA is extracted from the tibial metaphysis or diaphysis and calvaria using a guanidinium isothiocyanate-phenol-chloroform method after pulverizing frozen bone samples by a tissue homogenizer. See P. Chomczynski et al., Single-step method of RNA isolation by acid guanidium thiocyanate-phenol-chloroform extraction., Analyt Biochem, 162, 156-159 (1987), which is incorporated by reference herein in its entirety. RNA samples ([…]) are separated on 0.9% agarose/formaldehyde gels and transferred onto nylon membranes (Boehringer Mannheim, Germany). Membranes are prehybridized in Hybrisol I (Oncor, Gaithersburg, Md.) and 0.5 mg/ml sonicated salmon sperm DNA (Boehringer) at 42° C. for 3 hours and are hybridized at 420C with rat EP2 and mouse EP4 cDNA probes labeled with [^32P]-dCTP (Amersham, Buckinghamshire, UK) by random priming using the rediprime kit (Amersham). […]

Assay [4] relates to EP2 mRNA. Briefly: EP2 mRNA in vivo in bone tissue (Northern blot). Also on record: species or system rat.
Assay [5] has as its system EP4 mRNA. Put plainly: Localization of EP4 mRNA expression in bone tissue (in situ hybridization). The class given is in vivo, rat. As to conditions: single anabolic dose, rats. How it is done: Animal Procedures—For mRNA localization experiments, 5-week old Sprague-Dawley rats (Charles River) are euthanized by CO2, their tibiae and calvariae are excised, cleaned of soft tissues and frozen immediately in liquid nitrogen. For EP4 regulation experiments, 6-week old rats are given a single injection of either vehicle (7% ethanol in sterile water) or an anabolic dose of PGE2 (Cayman Chemical, Ann Arbor, Mich.), 3-6 mg/kg in the same vehicle) intraperitoneally. Animals are euthanized at several time points post-injection and their tibiae and calvariae, as well as samples from lung and kidney tissues are frozen in liquid nitrogen.
In-Situ Hybridization—Frozen tibiae are sectioned coronally at […] thickness and sections are mounted on charged slides (Probe On Plus, Fisher Scientific, Springfield, N.J.) and are kept at −70° C. until hybridization. cRNA probes are labeled with ^35S-UTPgS ([CN, Costa Mesa, CA) using a Riboprobe II kit (Promega Madison, Wis.). Hybridization is performed overnight at 50° C. […]
Localization of EP4 mRNA expression in bone tissue—In situ hybridization is used in order to localize cells expressing EP4 in bone. In control experiment (vehicle-injected) rats, low expression of EP4 is detected in bone marrow cells. […]

The text below walks through data of patent US20060167081A1, “Ep4 receptor agonists” (priority 2002, published 2006).

SMILES strings stand for the structures.

For the compound `CCCCC[C@H](O)/C=C/[C@H]1[C@H](O)CC(=O)[C@@H]1C/C=C\CCCC(=O)O` [PGE2], the “effect on intracellular cAMP” value with intracellular cAMP (RCT-3 cells) is “markedly induced”; in the assay on intracellular cAMP (ROS 17/2.8 cells), “no effect”; in the assay with intracellular cAMP (TRAB-11 cells), “markedly induced”. The “EP4 mRNA levels” value in the assay on EP4 mRNA [1] (RCT-3 cells) was “no effect”; in the assay with EP4 mRNA [1] (RP-1 periosteal cells, 10^-6 M) it was “rapidly increases”; in the assay on EP4 mRNA [3] (systemic), “rapidly increased”. For the same compound, in the assay with EP4 mRNA [1] (RP-1 periosteal cells, 10^-6 M), the “time of peak of EP4 mRNA levels after treatment” value was 2 h. The “induction of EP2 mRNA” value in the assay on EP2 mRNA [2] and in the assay on EP2 mRNA [4] was “does not induce” each time. Further, the “time of peak of EP4 mRNA levels after injection” value with EP4 mRNA [3] is 2 h. In addition, the “expression of EP4 in bone marrow cells” value in the assay on EP4 mRNA [5] is recorded as “increased”.
